Consider one compound from paper PMC10748408 (Frontiers in Oncology, 2023).

One series deals with 4T1 mammary tumors. Nature of the series: Tumor size, weight and volume in 4T1 mammary tumor model. It counts as in vivo, BALB/c mice. Conditions: 12.5, 25 and 50 mg/kg body weight of ART vs untreated tumor-bearing mice. The method, then:
(§1) Mouse mammary 4T1 cells in passage numbers between 7 and 12 (10^4 cells/ml in 50 µl PBS) were injected into the inguinal 4th mammary fat pad of BALB/c mice ([23], [24]). Normal mice received an equal volume of sterile PBS. A palpable tumor was allowed to develop for 14 days ([24]). […] Normal (mammary fat pad surrounding the 4th inguinal mammary pad), mammary tumor, and organs like lungs, kidney, liver, and blood were collected at the end of the experimental schedule. Body weight and tumor volume of each mouse were recorded daily during the tenure of the experiment. Tumor volume was calculated using the following formula: length (mm) × width^2 (mm) × 0.52 ([25]).

The test system of series [1] is cells isolated from the liver, kidney and lungs. Kind of series: MTT viability of cells isolated from organs of treated mice. It counts as in vivo, BALB/c mice. Conditions: MTT assay. The method, then:
Tissue samples were immersed in 9 parts of serum-free DMEM and 1 part of enzyme cocktail. Digestion was performed at 37°C for 4 hours. Isolated cells were washed well to remove any remaining enzyme, resuspended in ice-cold PBS and filtered through a single cell mesh to dissociate cell clumps. Cell viability was checked using trypan blue dye exclusion test before using the cells for further assays ([21]). 1 x 10^5 viable cells were seeded in a 96-well plate. […] Following treatment, wells were washed to remove the media and 100 µl of PBS was added to each well. Finally, 10 µl of MTT solution (5 mg/mL in PBS) was added and incubated at 37°C for 3 hours. The purple crystals formed were dissolved in 150 µl of DMSO. Absorbance was measured at 570 nm in a multi-plate reader Varioskan™ Lux (Thermo Fisher Scientific, USA; [21]).
On the technique in general: Tetrazolium assays rely on reduction of a dye to a coloured formazan, in cell work by metabolically active cells.

Another series has as its system beclin1 and LC3α/β. Kind of series: Western blot of autophagic markers in tumor tissues. It counts as in vivo, BALB/c mice. Conditions: ART dose-dependent. The method, then: Normal and tumor tissues were homogenized in ice-cold radioimmunoprecipitation assay (RIPA) buffer containing a protease inhibitor cocktail. Proteins were resolved by 10% sodium dodecyl sulphate-polyacrylamide gel electrophoresis (SDS-PAGE), transferred onto polyvinylidene difluoride (PVDF) membranes, blocked with 5% fat-free milk and incubated with primary antibodies (1:1000 dilution) overnight at 4°C. Blots were subsequently washed and incubated with respective secondary antibodies, tagged with horseradish peroxidase. Protein expression was detected using enhanced chemiluminescence (ECL) kit ([37]). Blots were analyzed using the Gel Doc XR and band intensity quantified using ImageJ software (NIH, USA).
On the technique in general: In western blotting, separated proteins are transferred to a membrane and probed.

Series [2] relates to ALDH+ cells (CSCs) of mammary tumors. Kind of series: ALDH+ population estimation (Aldefluor) in tumors. It counts as in vivo, BALB/c mice. The note with it: untreated tumor 24.1%. On the procedure: Mammary fat pad and tumor tissues (1 × 10^6 cells/ml) were resuspended in aldefluor™ assay buffer containing ALDH substrate and incubated for 45 minutes at 37°C. As a control, cells were resuspended in buffer containing aldefluor substrate in the presence of diethylaminobenzaldehyde (DEAB), a specific ALDH inhibitor. The fluorescent ALDH^+ cells were detected in the green fluorescence channel (520-540nm) in a flow cytometer (BD FACS Aria III). ALDH^+ and ALDH^- cells were eventually sorted using the BD Aria III Cell Sorter and sorted cells collected for further analysis (BD Biosciences, USA; [21]).

Another series relates to tumor-bearing mice. Nature of the series: Mean survival time of tumor-bearing mice. The note with it: for MST: tumor-bearing mice, observed 90 days. Format: in vivo, BALB/c mice. On the procedure: MST was calculated using the equation: MST (days) = (day of first mortality + day of last mortality)/2. The increase in survivability between treated and untreated groups was estimated by ILS% = [(MST of treated set/MST of untreated set) -1] X 100 ([26]).

A short description of another series: Body weight of mice. It counts as in vivo, BALB/c mice. On the procedure:
as §1

For series [3], the system named is TNF-α, IL-1β, IL-6 and IL-12. Kind of series: Serum pro-inflammatory cytokine ELISA. Conditions: ART-treated vs untreated tumor-bearing mice. Format: in vivo, BALB/c mice. On the procedure: Serum isolated from experimental mice, and conditioned media collected from MDA-MB-231 and 4T1 cells, were used to estimate levels of cytokines by ELISA. To prepare the conditioned media, the cell culture medium containing serum was discarded and cells were washed with serum-free DMEM media. […] After incubation, the conditioned media was collected for cytokine analysis. As per the manufacturer’s protocol, samples were added to the multi-analyte ELISArray wells, coated with antibodies for TNF-α, IL-1β, IL-6 and IL-12 and incubated for 2 hours. Detection antibodies were added, followed by 30 minutes incubation with avidin-HRP. After incubating with the developing solution, stop solution (Qiagen) was added to terminate the reaction ([39]). The O.D. was measured at 450 and 570 nm in an ELISA plate reader (Varioskan Lux, Thermo Fisher; USA).
For orientation: ELISA stands for enzyme-linked immunosorbent assay.

The test system of the next series is 4T1 cells. Nature of the series: Apoptotic cells (Annexin-FITC/PI flow cytometry) with or without CLEC12A overexpression. Format: cell-based, murine. Conditions: 4T1, non-transfected, ART + (1 µM, 24 hours); without ART 0.2%. The method, then:
Cells, isolated from normal and treated/untreated tumor tissues by collagenase-hyaluronidase digestion, were washed with Ca^2+-free PBS and stained with Annexin V binding buffer (1X). The cells were then incubated with Annexin V-FITC and propidium iodide (PI) for 15 minutes at 37°C. Cells were eventually analyzed on the BD FACS Aria III (Alexa Fluor at 488nm and PE at 570 nm, respectively). The percentage of apoptotic and necrotic cells were analyzed using the […]™ software (BD Biosciences, USA; [37]). For transfection, MDA-MB-231 and 4T1 cells were grown in a 6-well plate until they reached 70% confluency. CLEC12A-pcDNA recombinant/empty DNA plasmid (2500ng) or pcDNA empty vector (2500ng) was transfected into cells using 5μl Lipofectamine® 2000 reagent. […] Finally, transfection efficiency was confirmed by western blot analysis ([42]).

`C[C@@H]1CC[C@H]2[C@@H](C)C(=O)O[C@@H]3O[C@@]4(C)CC[C@@H]1[C@]32OO4` [ART, Artemisinin]: the “tumor weight and volume” value with 4T1 mammary tumors is given as “Significant decrease”. Also, the “viability of cells isolated from the liver, kidney and lungs” value in series [1] (normal mice treated with ART) is reported as “no loss of viability”; in series [1] (tumor-bearing mice, increasing doses of ART), “significantly increased cell viability”. In addition, the “expression of autophagic markers, beclin1 and LC3α/β” value with beclin1 and LC3α/β is listed as “decreased expression”. Moreover, the “percentage of ALDH+ cells” value was 8.1% in series [2] (T+ 25: ART 25 mg/kg) and 6.2% in series [2] (T+ 50: ART 50 mg/kg). Further, the “mean survival of tumor-bearing mice treated with ART” value with tumor-bearing mice (Kaplan-Meier plot, untreated succumbed within 50 days) is reported as about 90 days. In addition, the MST is recorded as 48.2 ± 17.3 days in the series on tumor-bearing mice (ART 6.25 mg/kg body wt), 61.3 ± 8.9 days in the series on tumor-bearing mice (ART 12.5 mg/kg body wt), 75.4 ± 7.1 days in the series on tumor-bearing mice (ART 25 mg/kg body wt) and 88.3 ± 8.9 days in the series with tumor-bearing mice (ART 50 mg/kg body wt). Also, the body weight result in “Body weight of mice” (normal mice, ART 6.25-50 mg/kg, 7 days, vs vehicle) is reported as “did not alter”; in “Body weight of mice” (tumor-bearing mice, ART treatment, dose-dependent), “restored towards normal values”. Further, in series [3], the “levels of pro-inflammatory cytokines (TNF-α, IL-1β, IL-6 and IL-12)” value is on record as “dose-dependent reduction”. The “percentage of apoptotic cells” value in the series on 4T1 cells is recorded as 11%.
